Assay [1] concerns the target T1, Bifunctional dihydrofolate reductase-thymidylate synthase (Toxoplasma gondii, UniProt Q07422).
T1 sequence (Q07422 whole entry): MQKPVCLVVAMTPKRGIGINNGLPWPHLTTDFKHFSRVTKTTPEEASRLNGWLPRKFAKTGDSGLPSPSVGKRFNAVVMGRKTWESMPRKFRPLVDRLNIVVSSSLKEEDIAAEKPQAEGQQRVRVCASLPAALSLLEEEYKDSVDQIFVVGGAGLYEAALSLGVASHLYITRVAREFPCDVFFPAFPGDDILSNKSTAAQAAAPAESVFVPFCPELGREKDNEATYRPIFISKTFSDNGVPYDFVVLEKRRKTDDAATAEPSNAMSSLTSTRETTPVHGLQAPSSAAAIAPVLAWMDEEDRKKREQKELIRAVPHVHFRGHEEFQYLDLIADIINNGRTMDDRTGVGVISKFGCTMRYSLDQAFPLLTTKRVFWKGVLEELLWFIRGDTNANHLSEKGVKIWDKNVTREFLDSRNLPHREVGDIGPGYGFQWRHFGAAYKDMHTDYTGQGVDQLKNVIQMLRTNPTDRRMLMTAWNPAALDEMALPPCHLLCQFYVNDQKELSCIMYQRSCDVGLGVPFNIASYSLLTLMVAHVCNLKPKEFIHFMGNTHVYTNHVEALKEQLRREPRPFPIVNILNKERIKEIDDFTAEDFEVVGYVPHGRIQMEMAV
Nature of the assay: Concentration inhibiting Toxoplasma gondii dihydrofolate reductase.

Assay [2] deals with T2, Dihydrofolate reductase (Pneumocystis carinii, UniProt P16184).
T2 sequence (P16184 whole entry): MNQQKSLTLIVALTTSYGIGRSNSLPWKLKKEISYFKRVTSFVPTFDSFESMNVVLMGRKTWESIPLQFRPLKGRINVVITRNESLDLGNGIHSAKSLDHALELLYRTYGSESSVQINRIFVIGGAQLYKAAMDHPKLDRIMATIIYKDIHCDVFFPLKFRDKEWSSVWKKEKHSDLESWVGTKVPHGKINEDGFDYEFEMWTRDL
Description: Concentration inhibiting Pneumocystis carinii dihydrofolate reductase

The target of assay [3] is T3, Dihydrofolate reductase (Rattus norvegicus, UniProt Q920D2).
T3 sequence (Q920D2 whole entry): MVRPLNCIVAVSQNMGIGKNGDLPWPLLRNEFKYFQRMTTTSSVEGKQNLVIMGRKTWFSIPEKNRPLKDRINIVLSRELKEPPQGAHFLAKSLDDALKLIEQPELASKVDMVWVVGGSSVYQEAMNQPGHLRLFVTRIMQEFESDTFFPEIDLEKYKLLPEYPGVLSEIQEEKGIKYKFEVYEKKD
Description: Concentration inhibiting rat liver dihydrofolate reductase.

The term IC50 denotes the midpoint of a concentration-inhibition curve. High values mean weaker potency in that assay, low ones greater potency in that assay. With `CN(Cc1ccc2nc(N)nc(N)c2n1)c1ccc(Cl)c(Cl)c1`, the IC50 in assay [1] was 98 nM; against Dihydrofolate reductase [2] it was 22 nM; on Dihydrofolate reductase [3] it was 32 nM.

With `COc1cc(N(C)Cc2ccc3nc(N)nc(N)c3n2)cc(OC)c1OC`, the IC50 in assay [1] was 4.7 nM; against Dihydrofolate reductase [2], 130 nM; against Dihydrofolate reductase [3], 26 nM.

Turning to `COc1ccc(OC)c(NCc2ccc3nc(N)nc(N)c3n2)c1`, the IC50 in assay [1] turned out to be 100 nM; on Dihydrofolate reductase [2], 1400 nM; against Dihydrofolate reductase [3] it was 430 nM.

For the compound `CN(Cc1ccc2nc(N)nc(N)c2n1)c1cccc(Cl)c1`, the IC50 turned out to be 20 nM in assay [1], 2100 nM on Dihydrofolate reductase [2] and 67 nM at Dihydrofolate reductase [3].

For `COc1cc(NCc2ccc3nc(N)nc(N)c3n2)cc(OC)c1OC`, the IC50 was 82 nM in assay [1] and 2600 nM against Dihydrofolate reductase [2].

Take `CN(Cc1ccc2nc(N)nc(N)c2n1)c1ccc(Cl)cc1`: the IC50 worked out at 15 nM in assay [1], 62 nM at Dihydrofolate reductase [2] and 22 nM against Dihydrofolate reductase [3].

Source of the values: ChEMBL document CHEMBL1128717, “2,4-Diaminopyrido[3,2-d]pyrimidine inhibitors of dihydrofolate reductase from Pneumocystis carinii and Toxoplasma gondii” (J Med Chem, 1995).
